Read-outs that look alike come from different tables or passages of the source.
What was measured:
[1] = test system: Key Broadleaf Weed and Crop Species; assay: Post-emergent Test II herbicidal activity (Table 15); assay type: in vivo; conditions: post-emergence, 336 h, 14 d; for pest or weed control at 35 g/ha: 35 g ai/ha; for pest or weed control at 70 g/ha: 70 g ai/ha; for pest or weed control at 140 g/ha: 140 g ai/ha
In short: (§1)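 Plants at first-second true leaf stage, grown 7-21 d in greenhouse (~15 h photoperiod, 23-29 °C day), were track-sprayed at 187 L/ha with compound in acetone/DMSO/water/isopropanol/crop oil/Triton X-155 at a high rate plus 1/2× to 1/16× dilutions. Injury scored visually after 14 d versus untreated plants, 0 (none) to 100% (complete kill).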

[2] = test system: Key Grass and Sedge Weeds as well as Grass Crops; assay: Post-emergent Test II herbicidal activity (Table 16); assay type: in vivo; conditions: post-emergence, 336 h, 14 d; for pest or weed control at 35 g/ha: 35 g ai/ha; for pest or weed control at 70 g/ha: 70 g ai/ha; for pest or weed control at 140 g/ha: 140 g ai/ha
In short: as §1

[3] = Abutilon theophrasti, velvetleaf (Abutilon theophrasti), read-out: Visual Growth Reduction (%) 14 Days After Application, ABUTH
[4] = Amaranthus retroflexus, redroot pigweed (Amaranthus retroflexus), read-out: Visual Growth Reduction (%) 14 Days After Application, AMARE
[5] = Brassica napus, oilseed rape, canola (Brassica napus), read-out: Visual Growth Reduction (%) 14 Days After Application, BRSNN
[6] = Chenopodium album, lambsquarters (Chenopodium album), read-out: Visual Growth Reduction (%) 14 Days After Application, CHEAL
[7] = Euphorbia heterophylla, wild poinsettia (Euphorbia heterophylla), read-out: Visual Growth Reduction (%) 14 Days After Application, EPHHL
[8] = Helianthus annuus, sunflower (Helianthus annuus), read-out: Visual Growth Reduction (%) 14 Days After Application, HELAN
[9] = Cyperus esculentus, yellow nutsedge (Cyperus esculentus), read-out: Visual Growth Reduction (%) 14 Days After Application, CYPES
[10] = Echinochloa crus-galli, barnyardgrass (Echinochloa crus-galli), read-out: Visual Growth Reduction (%) 14 Days After Application, ECHCG
[11] = Oryza sativa, rice (Oryza sativa), read-out: Visual Growth Reduction (%) 14 Days After Application, ORYSA
[12] = Setaria faberi, giant foxtail (Setaria faberi), read-out: Visual Growth Reduction (%) 14 Days After Application, SETFA
[13] = Triticum aestivum, wheat, spring (Triticum aestivum), read-out: Visual Growth Reduction (%) 14 Days After Application, TRZAS
[14] = Zea mays, maize, corn (Zea mays), read-out: Visual Growth Reduction (%) 14 Days After Application, ZEAMX

SMILES | pest or weed control at 35 g/ha [1, 3] | pest or weed control at 70 g/ha [1, 3] | pest or weed control at 140 g/ha [1, 3] | pest or weed control at 35 g/ha [1, 4] | pest or weed control at 70 g/ha [1, 4] | pest or weed control at 140 g/ha [1, 4] | pest or weed control at 35 g/ha [1, 5] | pest or weed control at 70 g/ha [1, 5] | pest or weed control at 140 g/ha [1, 5] | pest or weed control at 35 g/ha [1, 6] | pest or weed control at 70 g/ha [1, 6] | pest or weed control at 140 g/ha [1, 6] | pest or weed control at 35 g/ha [1, 7] | pest or weed control at 70 g/ha [1, 7] | pest or weed control at 140 g/ha [1, 7] | pest or weed control at 35 g/ha [1, 8] | pest or weed control at 70 g/ha [1, 8] | pest or weed control at 140 g/ha [1, 8] | pest or weed control at 35 g/ha [2, 9] | pest or weed control at 70 g/ha [2, 9] | also measured
COC(=O)c1nc(-c2ccc3cc[nH]c3c2)nc(N)c1Cl [Compound 1.30] | 0 to 29% | 0 to 29% | 75 to 84% | 0 to 29% | 75 to 84% | 60 to 74% | 45 to 59% | 45 to 59% | 60 to 74% | 30 to 44% | 30 to 44% | 45 to 59% | 0 to 29% | 45 to 59% | 60 to 74% | 0 to 29% | 0 to 29% | 0 to 29% | 0 to 29% | 0 to 29% | pest or weed control at 140 g/ha [2, 9]: 0 to 29%; pest or weed control at 35 g/ha [2, 10]: 0 to 29%; pest or weed control at 70 g/ha [2, 10]: 0 to 29%; pest or weed control at 140 g/ha [2, 10]: 0 to 29%; pest or weed control at 35 g/ha [2, 11]: 0 to 29%; pest or weed control at 70 g/ha [2, 11]: 0 to 29%; pest or weed control at 140 g/ha [2, 11]: 0 to 29%; pest or weed control at 35 g/ha [2, 12]: 0 to 29%; pest or weed control at 70 g/ha [2, 12]: 0 to 29%; pest or weed control at 140 g/ha [2, 12]: 0 to 29%; pest or weed control at 35 g/ha [2, 13]: 0 to 29%; pest or weed control at 70 g/ha [2, 13]: 0 to 29%; pest or weed control at 140 g/ha [2, 13]: 0 to 29%; pest or weed control at 35 g/ha [2, 14]: 0 to 29%; pest or weed control at 70 g/ha [2, 14]: 0 to 29%; pest or weed control at 140 g/ha [2, 14]: 0 to 29%; melting point: 240 to 242 °C
COC(=O)c1nc(-c2ccc3cc[nH]c3c2F)nc(N)c1Cl [Compound 1.31] | 45 to 59% | 60 to 74% | 60 to 74% | 60 to 74% | 95 to 100% | 95 to 100% | 85 to 94% | 95 to 100% | 95 to 100% | 95 to 100% | 95 to 100% | 95 to 100% | 95 to 100% | 95 to 100% | 95 to 100% | 30 to 44% | 45 to 59% | 60 to 74% | 0 to 29% | 0 to 29% | pest or weed control at 140 g/ha [2, 9]: 0 to 29%; pest or weed control at 35 g/ha [2, 10]: 75 to 84%; pest or weed control at 70 g/ha [2, 10]: 75 to 84%; pest or weed control at 140 g/ha [2, 10]: 85 to 94%; pest or weed control at 35 g/ha [2, 11]: 0 to 29%; pest or weed control at 70 g/ha [2, 11]: 0 to 29%; pest or weed control at 140 g/ha [2, 11]: 0 to 29%; pest or weed control at 35 g/ha [2, 12]: 60 to 74%; pest or weed control at 70 g/ha [2, 12]: 75 to 84%; pest or weed control at 140 g/ha [2, 12]: 85 to 94%; pest or weed control at 35 g/ha [2, 13]: 75 to 84%; pest or weed control at 70 g/ha [2, 13]: 0 to 29%; pest or weed control at 140 g/ha [2, 13]: 30 to 44%; pest or weed control at 35 g/ha [2, 14]: 0 to 29%; pest or weed control at 70 g/ha [2, 14]: 0 to 29%; pest or weed control at 140 g/ha [2, 14]: 0 to 29%; melting point: 185 to 190 °C
COC(=O)c1nc(-c2ccc3cc[nH]c3c2)nc(N)c1OC [Compound 1.32] | 0 to 29% | 0 to 29% | 0 to 29% | 0 to 29% | 30 to 44% | 60 to 74% | 30 to 44% | 45 to 59% | 60 to 74% | 0 to 29% | 0 to 29% | 75 to 84% | 0 to 29% | 60 to 74% | 85 to 94% | 45 to 59% | 60 to 74% | 75 to 84% | 0 to 29% | 0 to 29% | pest or weed control at 140 g/ha [2, 9]: 0 to 29%; pest or weed control at 35 g/ha [2, 10]: 0 to 29%; pest or weed control at 70 g/ha [2, 10]: 0 to 29%; pest or weed control at 140 g/ha [2, 10]: 0 to 29%; pest or weed control at 35 g/ha [2, 11]: 0 to 29%; pest or weed control at 70 g/ha [2, 11]: 0 to 29%; pest or weed control at 140 g/ha [2, 11]: 0 to 29%; pest or weed control at 35 g/ha [2, 12]: 0 to 29%; pest or weed control at 70 g/ha [2, 12]: 0 to 29%; pest or weed control at 140 g/ha [2, 12]: 0 to 29%; pest or weed control at 35 g/ha [2, 13]: 0 to 29%; pest or weed control at 70 g/ha [2, 13]: 0 to 29%; pest or weed control at 140 g/ha [2, 13]: 0 to 29%; pest or weed control at 35 g/ha [2, 14]: 0 to 29%; pest or weed control at 70 g/ha [2, 14]: 0 to 29%; pest or weed control at 140 g/ha [2, 14]: 0 to 29%; melting point: 190 to 191 °C

Source: patent publication US20170050957A1, “4-AMINO-6-(HETEROCYCLIC)PICOLINATES AND 6-AMINO-2-(HETEROCYCLIC)PYRIMIDINE-4-CARBOXYLATES AND THEIR USE AS HERBICIDES” (Dow AgroSciences LLC, priority 2013, published 2017)
